Laboratory results from PMC7216583 (Parasites & Vectors, 2020).
Structures can show the parent of a compound that is named as a salt. Where two headings read alike, the source gives them in different places.

Key:
in vitro = settings: human; for viability at 72 h: Host viability (%) mean
[1] = test system: Toxoplasma gondii RH-2F tachyzoites; assay: microbe, parasite or virus in culture; settings: 72 h; for inhibition at 5 µM: read-out: Parasite inhibition (%) Mean ± SD
[2] = read-out: Parasite inhibition (%) mean, preliminary screen, mean
[3] = read-out: Parasite inhibition (%) mean, preliminary screen of compound library, mean

With CC[C@]12C=CCN3CCC4(c5cc([C@@]6(C(=O)OC)C[C@H]7C[C@@H](C(C)(F)F)CN(Cc8c6[nH]c6ccccc86)C7)c(OC)cc5N(C)[C@H]4[C@@](O)(C(=O)OC)[C@@H]1OC(C)=O)C32 (stereo in doubt) [Vinflunine Tartrate] the viability (in vitro) was 60.8% and the inhibition of growth at 5 µM [1, 2] was 83.2%.

With CC1(C)CCC(CN2CCN(c3ccc(C(=O)NS(=O)(=O)c4ccc(NCC5CCOCC5)c([N+](=O)[O-])c4)c(Oc4cnc5[nH]ccc5c4)c3)CC2)=C(c2ccc(Cl)cc2)C1 [ABT-199 (GDC-0199 )] the viability at 72 h (in vitro) was 25.4% and the inhibition of growth at 5 µM [1, 3] was 70.8%.

Molecule CNC1CCCN(c2c(F)cc3c(=O)c(C(=O)O)cn(C4CC4)c3c2OC)C1 (stereo not shown) [Balofloxacin] has a viability at 72 h (in vitro) of 76.4% and an inhibition of growth at 5 µM [1, 3] of 71.8%.

Work on CCN1CCN(c2cc(-c3ccc(F)cc3)c3c(n2)CCCCCC3)CC1 [Blonanserin, reference compound] yielded a viability at 72 h, 5 µM (in vitro; Host viability (%) Mean ± SD) of 88.3 ± 5.9% and an inhibition at 5 µM [1] of 82.1 ± 3.1%.

Molecule CN(C)c1ccc(-c2nc3c(N4CCN(CC(=O)Nc5nccs5)CC4)c(Cl)cnc3[nH]2)cc1 [CCT129202] has a viability at 72 h (in vitro) of 42.6% and an inhibition of growth at 5 µM [1, 2] of 85.6%.

With CC(C)C[C@@H](C(=O)N[C@H](C(=O)OC1CCCC1)c1ccccc1)[C@H](O)C(=O)NO [CHR2797, reference compound] the viability at 72 h, 5 µM (in vitro; Host viability (%) Mean ± SD) was 88.8 ± 6.7% and the inhibition at 5 µM [1] was 85.6 ± 1.8%.

C[C@@H](Oc1cc(-c2cnn(C3CCNCC3)c2)cnc1N)c1c(Cl)ccc(F)c1Cl [Crizotinib (PF-02341066)] showed a viability (in vitro) of 43.6% and an inhibition of growth at 5 µM [1, 2] of 86.8%.

Molecule CN1CCC(=C2c3ccccc3C=Cc3ccccc32)CC1 [Cyproheptadine HCl (Periactin)] has a viability at 72 h (in vitro; uninfected human foreskin fibroblasts (HFFs), preliminary screen, mean) of 90.6%.

Work on CN1CCC(=C2c3ccccc3C=Cc3ccccc32)CC1 [Cyproheptadine HCl, reference compound] yielded a viability at 72 h, 5 µM (in vitro; Host viability (%) Mean ± SD) of 90.6 ± 1.2%.

For Nc1ccccc1NC(=O)c1ccc(CNC(=O)OCc2cccnc2)cc1 [Entinostat (MS-275, SNDX-275)], the viability at 72 h (in vitro) was 81.6% and the inhibition of growth at 5 µM [1, 2] was 75.7%.

Nc1nc2[nH]cc(CCc3ccc(C(=O)N[C@@H](CCC(=O)O)C(=O)O)cc3)c2c(=O)[nH]1 [Pemetrexed disodium, reference compound] gave a viability at 72 h, 5 µM (in vitro) of 84.6 ± 1.5%.

For C[C@H](Cc1cc2c(c(C(N)=O)c1)N(CCCO)CC2)NCCOc1ccccc1OCC(F)(F)F [Silodosin (Rapaflo)], the inhibition of growth at 5 µM [1, 2] was 47.9%.

Work on N[C@@H](CC(=O)N1CCn2c(nnc2C(F)(F)F)C1)Cc1cc(F)c(F)cc1F [Sitagliptin phosphate monohydrate] yielded an inhibition of growth at 5 µM [1, 3] of 1.1%.

Work on O=C(O)C(O)Cc1ccc(O)c(O)c1 (stereo not shown) [Sodium Danshensu] yielded an inhibition of growth at 5 µM [1, 3] of 2.2%.

With O=S(=O)(O)Oc1ccc(C(c2ccc(OS(=O)(=O)O)cc2)c2ccccn2)cc1 [Sodium Picosulfate] the inhibition of growth at 5 µM [1, 3] was 0.3%.

CCCC(=O)[O-].[Na+] [Sodium butyrate] gave an inhibition of growth at 5 µM [1, 3] of 23.1%.

With CNC(=O)c1cc(Oc2ccc(NC(=O)Nc3ccc(Cl)c(C(F)(F)F)c3)cc2)ccn1 [Sorafenib (Nexavar)] the inhibition of growth at 5 µM [1, 2] was 55.5%.

OC[C@@H](O)[C@@H](O)[C@H](O)[C@@H](O)CO [Sorbitol (Glucitol)] showed an inhibition of growth at 5 µM [1, 3] of -66.9%.

CC(=O)NS(=O)(=O)c1ccc(N)cc1 [Sulfacetamide Sodium] gave an inhibition of growth at 5 µM [1, 3] of 0.9%.

CNCC(O)c1ccc(O)cc1 (stereo not shown) [Synephrine HCl] gave an inhibition of growth at 5 µM [1, 3] of 3.7%.

CCc1nc(-c2cccc(C)c2)c(-c2ccnc(NC(=O)c3ccccc3)c2)s1 [TAK 715] gave an inhibition of growth at 5 µM [1, 3] of 22.5%.

Work on Nc1nc(N)c2nc(-c3cccc(O)c3)c(-c3cccc(O)c3)nc2n1 [TG100-115] yielded an inhibition of growth at 5 µM [1, 2] of 9.5%.

Cc1cnc(Nc2ccc(OCCN3CCCC3)cc2)nc1Nc1cccc(S(=O)(=O)NC(C)(C)C)c1 [TG101348 (SAR302503)] showed an inhibition of growth at 5 µM [1, 3] of 8.5%.

Clc1ccccc1C(c1ccccc1)(c1ccccc1)n1cccn1 [TRAM-34] showed an inhibition of growth at 5 µM [1, 2] of 2.6%.

Work on CCOC(=O)c1ccc(C#Cc2ccc3c(c2)C(C)(C)CCS3)nc1 [Tazarotene (Avage)] yielded an inhibition of growth at 5 µM [1, 3] of -0.7%.

Cc1cn([C@@H]2C[C@@H](O)[C@H](CO)O2)c(=O)[nH]c1=O [Telbivudine (Sebivo, Tyzeka)] gave an inhibition of growth at 5 µM [1, 3] of 12.9%.

In the case of CCOC(=O)[C@H](CCc1ccccc1)N[C@H]1CS[C@H](c2cccs2)CN(CC(=O)O)C1=O [Temocapril HCl], the inhibition of growth at 5 µM [1, 2] is reported as 31.7%.

Work on C[C@H](Cn1cnc2c(N)ncnc21)OCP(=O)(O)O [Tenofovir (Viread)] yielded an inhibition of growth at 5 µM [1, 2] of 0%.

Molecule CC(C)OC(=O)OCOP(=O)(CO[C@H](C)Cn1cnc2c(N)ncnc21)OCOC(=O)OC(C)C [Tenofovir Disoproxil Fumarate] has an inhibition of growth at 5 µM [1, 2] of 0.5%.

In the case of CC(S)C(=O)NCC(=O)O (stereo not shown) [Tiopronin (Thiola)], the inhibition of growth at 5 µM [1, 3] is reported as 0.9%.

C[N+]1(C)[C@@H]2C[C@@H](OC(=O)C(O)(c3cccs3)c3cccs3)C[C@H]1[C@@H]1O[C@@H]12 [Tiotropium Bromide hydrate] showed an inhibition of growth at 5 µM [1, 3] of -0.7%.

COc1cc2nccc(Oc3ccc(NC(=O)Nc4cc(C)on4)c(Cl)c3)c2cc1OC [Tivozanib (AV-951)] showed an inhibition of growth at 5 µM [1, 2] of -5.5%.

Work on C[C@H]1CCN(C(=O)CC#N)C[C@@H]1N(C)c1ncnc2[nH]ccc12 [Tofacitinib (CP-690550, Tasocitinib)] yielded an inhibition of growth at 5 µM [1, 3] of 11.2%.

With Cc1ccc(O)c([C@H](CCN(C(C)C)C(C)C)c2ccccc2)c1 [Tolterodine tartrate (Detrol LA)] the inhibition of growth at 5 µM [1, 3] was 2.2%.

CCC(=O)N1CCN(c2ccc(-n3c(=O)ccc4cnc5ccc(-c6cnc7ccccc7c6)cc5c43)cc2C(F)(F)F)CC1 [Torin 1] gave an inhibition of growth at 5 µM [1, 3] of 17.8%.

In the case of Nc1ccc(-c2ccc3ncc4ccc(=O)n(-c5cccc(C(F)(F)F)c5)c4c3c2)cn1 [Torin 2], the inhibition of growth at 5 µM [1, 3] is reported as 25.1%.

CCC(COC(=O)c1cc(OC)c(OC)c(OC)c1)(c1ccccc1)N(C)C (stereo not shown) [Trimebutine] showed an inhibition of growth at 5 µM [1, 2] of 1.4%.

In the case of CN1CCc2c(c3ccccc3n2Cc2ccc(C(=O)NO)cc2)C1 [Tubastatin A HCl], the inhibition of growth at 5 µM [1, 3] is reported as 2.3%.

O=C(Nc1ccc(S(=O)(=O)Nc2ccccc2Cl)c(Cl)c1)c1ccccn1 [VU 0364439] showed an inhibition of growth at 5 µM [1, 3] of -0.9%.

CC(C)(CO)c1cc2cc(NC(=O)C3(c4ccc5c(c4)OC(F)(F)O5)CC3)c(F)cc2n1C[C@@H](O)CO [VX-661] gave an inhibition of growth at 5 µM [1, 3] of 0.6%.

CC(C)[C@H](N)C(=O)OCCOCn1cnc2c(=O)[nH]c(N)nc21 [Valaciclovir HCl] gave an inhibition of growth at 5 µM [1, 3] of 0.1%.

c1cnc2cc3c(cc2n1)C1CNCC3C1 [Varenicline tartrate] showed an inhibition of growth at 5 µM [1, 2] of 0%.

For CCCS(=O)(=O)Nc1ccc(F)c(C(=O)c2c[nH]c3ncc(-c4ccc(Cl)cc4)cc23)c1F [Vemurafenib (PLX4032)], the inhibition of growth at 5 µM [1, 2] was 0.5%.

Work on N#C[C@@H]1CCCN1C(=O)CNC12CC3CC(CC(O)(C3)C1)C2 [Vildagliptin (LAF-237)] yielded an inhibition of growth at 5 µM [1, 3] of -11.7%.

For C=CC(=O)Nc1cccc(Sc2nc(Nc3ccc(N4CCN(C)CC4)cc3)ncc2Cl)c1 [WZ8040], the inhibition of growth at 5 µM ([1]; read-out: Parasite inhibition (%) mean) was 2.8%.

For Oc1nc(-c2ccc(C(F)(F)F)cc2)nc2c1CSCC2 [XAV-939], the inhibition of growth at 5 µM [1, 2] was -38.8%.

O=C[C@H](O)[C@@H](O)[C@H](O)CO [Xylose] gave an inhibition of growth at 5 µM [1, 3] of -51.2%.

Molecule C[C@@H](N)[C@H]1CC[C@H](C(=O)Nc2ccncc2)CC1 [Y-27632 2HCl] has an inhibition of growth at 5 µM [1, 2] of -4.8%.

With CC(C(=O)O)c1ccc2c(c1)CC(=O)c1ccccc1S2 (stereo not shown) [Zaltoprofen] the inhibition of growth at 5 µM [1, 3] was 3.3%.

In the case of O=C1Cc2cc(CCN3CCN(c4nsc5ccccc45)CC3)c(Cl)cc2N1 [Ziprasidone hydrochloride], the inhibition of growth at 5 µM [1, 3] is reported as 33.7%.
